From a melting point compilation (Tetko et al.; mined from patent text by program, amines drawn as free bases though some values may be those of a salt)

melting point [°C]	Compound
56 to 57	COC(=O)c1cc(-n2cccc2)ccc1C
160 to 162	O=C(Nc1ccc(F)cc1)NC1CCN(S(=O)(=O)c2ccc(Cl)cc2)CC1
220	Cc1ccc(C(=O)Nc2ccc3ccc(Cl)nc3n2)s1
166	O=C(O)Cc1ccc(Oc2ccc(CC3SC(=O)NC3=O)cc2)cc1 (stereo not given)
135 to 141	COc1ccc(C2C[N+]([O-])=C3CCCCC32)cc1OC (stereo not given)
71.1	CC(Br)c1ccc(C(=O)c2cccs2)cc1 (stereo not given)
204 to 206	Cn1c(=O)c(NC(=O)Nc2ccc(F)cc2F)c(-c2ccccc2)c2cc(Cl)ccc21
69.5 to 71	CCCCCCCCCCCCOC(=O)Cc1nc(-c2ccc(Cl)cc2)oc1-c1ccco1
134 to 135	CCCOC1(OC)C=CC=C(N2CCC(c3noc4cc(F)ccc34)CC2)C1O (stereo not given)
171 to 172	CCOc1cc(C(CC#N)N2C(=O)c3cccc(N)c3C2=O)ccc1OC (stereo not given)
111 to 112	O=C(O)CCCc1ccc(C(=O)C=Cc2ccccc2)cc1
126 to 127	Cc1oc(-c2ccccc2)nc1COc1ccc(OCc2ccccc2)cc1
104 to 106	CCN(CC)CCOc1cccc2c1c1cccc(Cl)c1n2Cc1ccc(F)cc1
315 to 317	Nc1ccc([N+](=O)[O-])cc1-c1cc([N+](=O)[O-])ccc1N
176 to 177	Cc1oc(-c2ccccc2)nc1COc1ccc2c(-c3ccccc3)c(COc3nn(-c4ccccc4)cc3C=O)oc2c1
63 to 64	COc1ccc(C2(C#Cc3cccc(NC(C)=O)c3)CCC(=O)CC2)cc1OC1CCCC1
260 to 263	COc1ccc(-c2nc3cccnc3n2CC(=O)O)cc1
85 to 96	COc1cc(C2CCN(C[C@H](Oc3ncc4ccc(-c5ccccc5N(C)S(C)(=O)=O)n4n3)C(F)(F)F)CC2)ccc1N
240 to 242	CCS(=O)(=O)c1nc2c(cc1F)c(=O)c(C(=O)O)cn2C1CC1
38.5	CC(C)(C)[Si](C)(C)O[C@H]1C=C(I)C(=O)C1
245	CN1C(=O)CC[C@]2(C)c3ccc(-c4ccc(O)c(Cl)c4)cc3CC[C@@H]12
150 to 152	COc1cc2ncc(O[C@H]3CC[C@@H](OC(C)=O)CC3)nc2cc1OC
142	CN1CCN(C(=O)c2ccc(-c3cc(-c4c[nH]nc4-c4ccccn4)ccn3)cc2)CC1
56 to 58	OC(c1ccccc1)c1cc2cc(Br)ccc2o1 (stereo not given)

melting point [°C]	Compound
90	COc1ccc(N(CCC(=O)O)C(=O)Cl)cc1
105 to 106	O=C(NCCCCCOc1cc(CN2CCCCC2)ccn1)c1cn[nH]c1
142 to 145	Nc1nc(NCCC2CCCCC2)nc2c1ncn2C1OC(CO)C(O)C1O (stereo not given)
215	O=C(O)c1ccc(SCc2c(O[C@H](Cn3ccnc3)c3ccccc3)ccc3c2CCCC3=O)cc1
157 to 160	CCOC(=O)c1cn(-c2ccc(F)cc2F)c2nc(OS(=O)(=O)c3ccccc3[N+](=O)[O-])c(F)cc2c1=O
162 to 164	CCN(CC)c1ccc(C2(c3ccc(N(CC)CC)cc3N(CC)CC)OC(=O)c3c(Cl)c(Cl)c(Cl)c(Cl)c32)c(C)c1 (stereo not given)
113 to 115	CC12CCC(C1)C1(C)Oc3ccc(C(O)c4ccc(CO)cc4)cc3C21C (stereo not given)
149 to 151	O=c1[nH]c(=O)n(CCCN2CCC(OC(c3ccccc3)c3ccccc3)CC2)c2ccccc12
127 to 128	COc1c(C=NO)c(=O)n(C)c(=O)n1C
169 to 172	CCOC(=O)c1cn(C2CC2)c2c(F)c(F)c(Cl)cc2c1=O
223 to 224	CCOCc1nc2c(N)nc3ccccc3c2n1N1CCOCC1
98	CC(C)(C)OC(=O)Nc1cc(CC#N)c(C#Cc2ccccc2)cc1NC(=O)CC(=O)c1cccc(C#N)c1
208	CC(=O)OCC(=O)C1C(C)CC2C3CC(Cl)C4=CC(=O)C=CC4(C)C3C(O)CC21C (stereo not given)
133 to 134	Cc1c(-c2ccccc2)oc2c(C(O)CCCO)cccc2c1=O (stereo not given)
115 to 117	COc1cccc2c1OC(COS(=O)(=O)c1ccc(C)cc1)CC2 (stereo not given)
49 to 50	CN(CCO)C(c1ccc(Cl)cc1)c1ccc(Cl)cc1
105 to 107	CC(C)(C)NCC(O)COc1ccccc1-c1nc(C(F)(F)F)c[nH]1 (stereo not given)
183	Cc1oc2ccccc2c1C(=O)c1ccc(Cl)c(S(N)(=O)=O)c1
89 to 92	CC(O)c1ccc(O)c(Cl)n1 (stereo not given)
> 300	COc1ccc(-c2sc3ncc(CO)c(O)c3c2C)cc1
140	COc1ccc(C(C)(C)c2cc(C(C)(C)C)cc(-n3nc4ccc(C(F)(F)F)cc4n3)c2O)cc1
146 to 148	O=S(CCCc1nc(-c2ccc(F)cc2)c(-c2ccncc2)[nH]1)c1ccccc1 (stereo not given)
136 to 138	S=C1NCSc2ccsc21
161	CNC(=O)NCCN1CCC(Nc2nc3ccccc3n2Cc2ccc(F)cc2)C1 (stereo not given)

melting point [°C]	Compound
202	CC(C)CC(=O)N[C@H]1CC[C@H](CCN2CCN(c3nccc4c3CCO4)CC2)CC1
73	CC(C)c1cc2cc([N+](=O)[O-])ccc2o1
112 to 114	CCOC(=O)N1CC[C@@H]2CC(=O)c3cc([N+](=O)[O-])ccc3C[C@H]2C1 (relative stereo)
150 to 152	O=C(O)c1cccnc1N1CCc2ccccc2C1
200 to 201	C=C1COc2c(N3CCN(C)CC3)c(F)cc3c(=O)c(C(=O)O)cn1c23
156 to 158	Cc1c(NC(=O)c2ccc(-c3ccccc3)c(F)c2)ccc2cc(CN3CCCC3)cnc12
103 to 105	CC(C)c1cc(-c2ccc(F)c3ccc(F)cc23)nc(N)n1
128 to 129	CC(=O)N(CCCn1cncn1)C1=Nc2cccc3cccc1c23
184 to 185	O=c1c(CCCCc2cccnc2)cc2cccnc2n1-c1cccc([N+](=O)[O-])c1
55 to 58	COC(=O)c1sc2c(c1O)CCCC2
142 to 145	CS(=O)(=O)c1cc(Cl)cc(O)c1O
> 220	C(=Cc1ccnc2[nH]c3ccccc3c12)c1ccccc1
263 to 265	NC(=O)c1c(Cl)c(-c2ccccc2)n2c1CN(C(=O)Nc1cccc(C(=O)O)c1)CC2
201	O=C(Nc1ccccc1Cl)Oc1ccc2c(c1)CCCN2
112 to 115	CN(C)CCc1[nH]c2ccc(Br)cc2c1CSc1ccccc1
283 to 285	N#Cc1ccc(NC(=O)c2cccc(S(=O)(=O)N3CCOCC3)c2)c(-c2n[nH]c(=O)o2)c1
222 to 224	O=C(O)COC1(Cl)C=C2ONC(c3ccccc3F)=C2C(Cl)=C1Cl (stereo not given)
102	OCc1ccc(Cc2ccccc2CO)cc1
121 to 124	CNc1c(C/C=C(\C)CCC(=O)O)c(OC)c(C)c2c1C(=O)OC2
201 to 203	CC1(C)CCC(C)(C)c2cc(COc3cccc(C(=O)O)c3-c3ccc(CCO)cc3)ccc21
59 to 62	COc1ccc(CCc2ccccn2)cc1OCCCCCc1ccccc1
335 to 338	COc1ccccc1-n1c(=O)[nH]c2c(C(N)=O)nc(-c3ccc(C#N)cc3)nc21
123 to 124	O=C(CNC(=O)c1nc2cccc(OC(F)(F)F)c2cc1OCc1ccccc1)OCc1ccccc1
62 to 64	CC(C)CC(=O)c1cc(-c2ccccc2)no1

melting point [°C]	Compound
202 to 205	Cc1ccc2c(c1)c(=O)c(S(C)=O)cn2C (stereo not given)
248 to 249	CC1(C)Oc2ccsc2C(NC(=O)c2cccnc2)C1O (stereo not given)
67 to 69	Nc1cc(Br)ccc1-c1ccc(F)cc1F
167 to 168	CCOC(=O)C1(Cc2ccc(OC)c(OC)c2)C(=O)NCC1c1ccc2c(c1)OCO2 (stereo not given)
123 to 124	CC(C)C(=O)Nc1cc(C(C)(C)C)on1
49 to 50	CCCOc1ccc(CCCCCCC(=O)O)cc1
155 to 160	COn1cc(C(=O)NCc2ccc(Cl)cc2)c(=O)c2ccccc21
202 to 203	CC(C)c1ccc(C(=O)NCCOc2ccc(C(=O)O)cc2)cc1
188 to 190	CN(Cc1cccc2c1C(=O)N(C1CCC(=O)NC1=O)C2=O)C(=O)NC(C)(C)C (stereo not given)
190	CSC(Nc1ccc(NC(=O)OC(C)(C)C)cc1)=C(C#N)C#N
133 to 134	O=C(N1CCc2ccc(Cl)c(O)c2CC1)C(F)(F)F
53.5 to 54.5	CN(Cc1ccccc1)c1nccc2ccccc12
104 to 106	Cc1ccccc1C1CC(=O)c2c(C)ccnc2C1 (stereo not given)
182 to 184	Cc1cc(/C=C/C(=O)O)c(C)n1-c1ccc(C(=O)N(C)C)cc1
111 to 114	O=C(SCC(Cc1ccc(Cl)cc1)C(=O)O)c1ccccc1 (stereo not given)
170	O=CN1CCN(C(=O)COc2cc(-c3ccccc3)nc3ccccc23)CC1
180	CC(=O)Nc1ccc(-c2cc(-c3ccc(NC(C)=O)cc3C)cc(-c3ccc(NC(C)=O)cc3C)c2)c(C)c1
160	Cc1cc(-n2ccnc2)c2cccc(OCc3c(Cl)ccc(S(=O)(=O)N4CC[C@H]4C(=O)O)c3Cl)c2n1
175 to 177	Nc1ncc(Sc2ncccn2)s1
210 to 211	COc1ccc(-c2cc3cc(F)c(F)cc3[nH]2)cc1N
228	O=C(O)CCCC(=O)N[C@@H](Cc1ccc(-c2ccccc2)cc1)C(=O)NCCCCNc1ncccn1
114 to 115	Cc1cc(C)c(C(CO)c2ccc(Br)cc2)c(O)c1C (stereo not given)
197 to 199	O=C1Nc2cccc(-c3cccc([N+](=O)[O-])c3)c2/C1=C/c1ccc[nH]1
75 to 76	O=C(O)CCCOc1ccccc1OCc1ccccc1

Compound	melting point [°C]
Cc1nc(-c2ccc(C=CC3CN4CCC3CC4)cc2)no1 (stereo not given)	93 to 97
O=C(CCl)NCCOCCO	130 to 132
COc1ccc(Nc2nc(NN3CCCCCC3)nc(N(C)C3CCNCC3)n2)cc1Cl	81
N#Cc1ccc(N2C(=O)[C@@H]3[C@H](O)CCN3C2=O)c2ccccc12 (relative stereo)	224 to 225
